From US5808144A, “Benzene derivatives” (Teijin Limited, priority 1995, dated 1998)

What was measured:
human IgE antibody = test: Human IgE antibody production-inhibiting activity in vitro (lymphocytes + IL-4 + anti-CD40 Ab + IL-10, sandwich ELISA); assay type: cell-based; conditions: Lymphocyte; for inhibition at 0.1 µM: 100 nM (0.1 μM), vs. no compound; for IC50: IgE antibody production
Description: (§1) Measurement of human IgE antibody production-inhibiting activity in vitro
(§2) In accordance with the following method established with reference to The Journal of Immunology (J. Immunol.), Vol. 146, 1836 to 1842 (1991) and the Journal of Immunology (J. Immunol.), Vol. 147, 8 to 13 (1991), the concentrations of IgE and […], when the compounds of the present invention shown in Table 12 were employed, were measured.
(§3) Peripheral venous blood gathered from a healthy person was subjected to a density-gradient centrifugation to isolate lymphocytes therefrom. The isolated lymphocytes were washed and suspended in a culture medium liquid (RPMI-1640 (made by Gibco Co.)+10% heat-inactivated FCS (made of Whittaker Co.)+100 μg/ml streptomycin+100 U/ml penicillin G+2 mM L-glutamine). The lymphocytes in the suspension were cultured for one week in the presence or non-presence of the above-mentioned compounds and in the presence of an interleukin 4 (IL-4, made by GENZYME CO.) (0.1 mg/ml), an anti-CD 40 antibodies (anti CD 40 Ab, made by BIOSOURCE CO., clone B-B20) (0.2 mg/ml), and an interleukin 10 (IL-10, made by GENZYME CO.) (0.2 mg/ml). To this culture system, the same culture medium liquid as mentioned above was supplemented, and then the culture was further carried out for one week. Thereafter, the concentrations of IgE antibodies and IgG antibodies in the supernatant of the culture mixture were measured by a sandwich ELISA method. In the measurement by the ELISA method, the concentration of the IgE antibodies was determined by using a primary antibody consisting of a rabbit anti-human IgE (ε) antibody (made by IGN Co.) and a secondary antibody consisting of biotin-anti-human IgE monoclonal antibody (G7-26, made by Phar Mingen Co.), and the concentration of IgG antibodies was determined by using a primary antibody consisting of anti-human IgG monoclonal antibody (G18-145, made by Phar Mingen Co.) and a secondary antibody consisting of biotin-donkey anti-human IgG antibody (H+L), made by Jackson Co.). Also, in the measurement of IgE and IgG antibody concentrations, as an enzyme, an Avidin-Biotin-HRP (Avidin-Biotin-Horse Radish Peroxidase; ABC kit, made by Vector Lab.) was used and as a substrate, TMB (3,3', 5,5'-tetramethylbenzidine) Microwell Peroxidase Substrate System (made by Kirkegaad & Perry Laboratories Inc.) was used.
(§4) On the basis of each antibody concentration when the compound of the present invention was not present, each antibody production-inhibition (%) in a concentration of the compound to be tested of 0.1 μM was calculated. Further, with respect to some of the compounds tested, the antibody production-inhibitions (%) of the tested compounds were measured in various concentrations thereof, and IC 50 values thereof were calculated. (Refer to Uejima et al., American Academy of Allergy & Immunology, Proceeding of 1995 Annual Meeting, Program No. 818).

human IgG antibody = test: Human IgG antibody production-inhibiting activity in vitro (lymphocytes + IL-4 + anti-CD40 Ab + IL-10, sandwich ELISA); assay type: cell-based; conditions: Lymphocyte; for inhibition at 0.1 µM: 100 nM (0.1 μM), vs. no compound; for IC50: IgG antibody production
Description: as §1, §2, §3, §4

anti-TNP IgE = test: IgE antibody production-inhibiting performance on TNP-sensitive mice: serum anti-TNP IgE (ELISA); assay type: in vivo, mouse; conditions: serum day 11, vehicle 433 ± 118
Description: (§5) Measurement of IgE antibody production-inhibiting performance on TNP-sensitive mice
(§6) TNP-KLH (2 μg/head) and Alum (1 mg/head) were dosed into the abdominal cavities of 8-week-old male mice to sensitize the mice.
(§7) Compound No. 14 was suspended in a concentration of 1.0 mg/ml, 3.0 mg/ml or […] in an aqueous 5% gum arabi solution, and each suspension was perorally dosed to three groups of mice for medication, to which each medicine was dosed at a dosage of 10 ml/kg, (namely, 10 mg/kg, 30 mg/kg or 100 mg/kg), once a day continuously for 10 days from the sensitized day. For a vehicle mouse group, the above-mentioned aqueous gum arali solution was dosed in the same amount as mentioned above in the same manner as mentioned above.
(§8) On the day after the final dosing day (the eleventh day), blood was extracted from the heart of the mouse, and a TNP specific antibody value of a blood serum obtained from the extracted blood was measured in accordance with ELISA method.

anti-TNP IgM = test: TNP-sensitive mice: serum anti-TNP IgM (ELISA); assay type: in vivo, mouse; conditions: serum day 11, vehicle 110 ± 9
Description: as §5, §6, §7, §8

anti-TNP IgG = test: TNP-sensitive mice: serum anti-TNP IgG (ELISA); assay type: in vivo, mouse; conditions: serum day 11, vehicle 4390 ± 2630
Description: as §5, §6, §7, §8

[1] = 10 mg/kg p.o. once a day for 10 days
[2] = 100 mg/kg p.o. once a day for 10 days, ** p < 0.01 vs. vehicle
[3] = 30 mg/kg p.o. once a day for 10 days

Row | Structure (SMILES) | IC50 (human IgE antibody) | IC50 (human IgG antibody) | inhibition at 0.1 µM (human IgE antibody) | inhibition at 0.1 µM (human IgG antibody) | further results
1 | O=C(Cc1ccc(Oc2ccc(OCc3ccccc3)cc2)cc1)Nc1ccccc1C(=O)O [Compound No. 4, 2-(4-(4-benzyloxyphenoxy)phenylacetamido)benzoic acid] | 28 nM | 200 nM | 100% | 100% | –
2 | O=C(Cc1ccc(Oc2ccc(OC3CCCCC3)cc2)cc1)Nc1ccccc1C(=O)O [Compound No. 8, 2-(4-(4-cyclohexyloxyphenoxy)phenylacetamido)benzoic acid] | 17 nM | 50 nM | 95.5% | 40.6% | –
3 | O=C(Cc1ccc(Oc2ccc(OC3CCCCCCC3)cc2)cc1)Nc1ccccc1C(=O)O [Compound No. 14, 2-(4-(4-cyclooctyloxyphenoxy)phenylacetamido)benzoic acid] | 6 nM | 12 nM | 100% | 93.8% | anti-TNP IgE (anti-TNP IgE; [1]): 127 ± 72 ng/mL; anti-TNP IgE (anti-TNP IgE; 30 mg/kg p.o. once a day for 10 days, ** p < 0.01 vs. vehicle): 52 ± 30 ng/mL; anti-TNP IgE (anti-TNP IgE; [2]): 0.2 ± 0.4 ng/mL; anti-TNP IgM (anti-TNP IgM; [1]): 79 ± 40 µg/mL; anti-TNP IgM (μg/ml) (anti-TNP IgM; [3]): 73 ± +26 μg/ml; anti-TNP IgM (anti-TNP IgM; [2]): 20 ± 5.0 µg/mL; anti-TNP IgG (anti-TNP IgG; [1]): 2980 ± 2310 ng/mL; anti-TNP IgG (anti-TNP IgG; [3]): 2500 ± 1700 ng/mL; anti-TNP IgG (anti-TNP IgG; [2]): 16 ± 18 ng/mL
4 | CC(C)Oc1ccc(Oc2ccc(CC(=O)Nc3ccccc3C(=O)O)cc2)cc1 [compound 18, 2-(4-(4-isopropyloxyphenoxy)phenylacetamido)benzoic acid] | – | – | 19.5% | -1.7% | –
5 | O=C(Nc1ccccc1C(=O)O)c1ccc(Oc2ccc(OC3CCCCCCC3)cc2)cc1 [compound 22, 2-(4-(4-cyclooctyloxyphenoxy)benzamido)benzoic acid] | – | – | 51% | -33.2% | –
6 | O=C(Nc1ccccc1C(=O)O)c1ccc(Oc2ccc(O)cc2)cc1 [compound 30, 2-(4-(4-hydroxyphenoxy)benzamido)benzoic acid] | – | – | 25.7% | -31.7% | –

Further lines, with some results ahead:

Row | IC50 (human IgE antibody) | IC50 (human IgG antibody) | Structure (SMILES) | inhibition at 0.1 µM (human IgE antibody) | inhibition at 0.1 µM (human IgG antibody) | further results
7 | 44 nM | > 100 nM | O=C(Cc1ccc(Oc2ccc(OC3CCCC3)cc2)cc1)Nc1ccccc1C(=O)O [compound 12, 2-(4-(4-cyclopentyloxyphenoxy)phenylacetamido)benzoic acid] | 100% | 95.8% | –
8 | 22 nM | 46 nM | O=C(Cc1ccc(Oc2ccc(OC3CCCCCCCCCCC3)cc2)cc1)Nc1ccccc1C(=O)O [compound 16, 2-(4-(4-cyclododecanyloxyphenoxy)phenylacetamido)benzoic acid] | 100% | 95.8% | –
9 | 35 nM | > 100 nM | CCC(CC)Oc1ccc(Oc2ccc(CC(=O)Nc3ccccc3C(=O)O)cc2)cc1 [compound 20, 2-(4-(4-(3-pentyloxy)phenoxy)phenylacetamido)benzoic acid] | 100% | 52.6% | –
